# Read-outs that look alike come from different tables or passages of the source.
# What was measured:
# [1] = system: bone resorption in the TPTX rats; conditions: TPTX rat; for decrease in blood levels of Ca2+ (FIG. 2): 0.01-5 mgP/kg
# Protocol: Female Spraque-Dawley rats from Molegaards Breeding Centre, Skensved, Denmark were used in the experiments. The animals were kept three by three in Macrolon cages, with free access to standard rat food pellets and tap water during the whole experiment. TPTX (Thyroparathyroidectomy) was preformed during anaesthesia with xylazine (Rompun®, 20 mg/ml, 0.25 ml/kg, intraperitoneally (i.p.)) and ketamine (Ketalar®, 50 mg/ml, 2.0 ml/kg, i.p.). After TPTX all rats were supplemented with 4 μg/kg thyroxin subcutaneously three times a week. TPTX adequacy was checked by determination of blood levels of Ca^2+ in a blood samples obtained from the vein of the tail 5-6 days after surgery. TPTX was considered successful if blood Ca^2+ was ≦80% of the concentration found in the rats before surgery.
# Bone resorption in the TPTX rats was stimulated by the arotinoid ethyl p-[(E)-2-(5,6,7,8-tetrahydro-5,5,8,8-tetramethyl-2-naphtyl)penyl]-benzoate (RO 13-6298, a gift from Hoffman-La Roche AG, Basel, Switzerland). RO 13-6298 was administered subcutaneously once daily (100 μg/kg in 1 ml/kg solved in polyethylene glycol 300 containing 10% ethanol) for three consecutive days (days 1, 2 and 3), day 1 being five to six days after TPTX.
# [2] = taken either concurrently with or 2 hours after breakfast; cited from earlier work
smiles,measurement,setting,value
"NCCCC(O)(P(=O)(O)O)P(=O)(O)O [alendronate, 4-amino-1-hydroxybutylidene-1,1-biphosphonic acid]",decrease of blood levels of Ca2+ compared to rats treated with only saline,"[1]; 24 hours after the third oral dose, 1 mgP/kg, dissolved in saline (0.9% NaCl), free access to food",no significant decrease
same,decrease in blood levels of Ca2+ (FIG. 2),[1]; saline i.v.,dose-dependent decrease
same,decrease in blood levels of Ca2+ (FIG. 2),[1]; saline p.o.,dose-dependent decrease
same,impairment of availability,[2],> 85%

# Reference: patent US6372728B1, “Formulation for treatment of osteoporosis” (AstraZeneca AB, priority 1997, dated 2002)
